Measured values as given in patent publication US8173682B2, “Substituted pyridones as inhibitors of poly(ADP-ribose) polymerase (PARP)” (Aventis Pharmaceuticals Inc., priority 2004, dated 2012).
Counter-ions that a name gives are not always drawn.

Molecular target: T1, recombinant human PARP (PARP1) (Homo sapiens, UniProt P09874)
T1 construct: Full length human PARP (PARP1) is assembled from PCR fragments; His6 tag with TEV site, from the pFastBac-HTb vector (own knowledge of the vector); made in house; host or cells: insect cells, baculovirus (Bac-to-Bac, Gibco-BRL)
Assay: PARP enzyme assay, Method A (radioactivity or 'ELISA' enzyme assay with partially purified enzyme)
Assay type: biochemical
Details: recombinant human PARP preparation, radioactive or ELISA enzyme assay
Description: Two different methods are employed in determining the activity of the compounds of this invention in inhibiting the activity of PARP enzyme, designated as Method A and Method B respectively as set forth below.
Method A: Cloning and Expression, and Partial Purification of Recombinant Human PARP:
Full length human PARP (PARP1) is assembled from PCR fragments of a clone from a human brain cDNA library and two Incyte clones. The PARP gene (3046 bp) is sub-cloned into pFastBac-HTb vector to give PARP-pFastBac-HTb and the sequence of this clone is verified. PARP-pFastBac-HTb is expressed to obtain protein using the Bac-to-Bac expression protocol from Gibco-BRL. The recombinant virus generated is used to scale up the material for purification.
Cell pellets from cell broth of cells expressing PARP are treated with a cocktail of protease inhibitors and lysed by 4 freeze-thaw cycles. The material is suspended in 10 mM HEPES/0.1M NaCl/pH 7.2, stirred, and then centrifuged. A 40%-70% ammonium sulfate cut of protein pellet is obtained from the supernatant. The pellet is solubilized in 10 mM HEPES/pH 7.2 and centrifuged. The supernatant buffer is exchanged to 10 mM HEPES/pH 7.2/0.1M NaCl/25% glycerol by dialysis or with a desalting column. The enzyme preparation is stored at −20° C. until use.
The compounds of this invention are then tested with this enzyme preparation using either the radioactive enzyme assay or by the “ELISA” enzyme assay as set forth below.
Radioactivity Enzyme Assay:
Incorporation of radioactivity from labeled NAD into acid-precipitated protein is measured. The reaction mixture (volume 100 μL or 50 μL, in a test-tube or 96-well plate) contained 100 μg/mL calf thymus DNA (sonicated), 100 μg/mL histones, 100 mM Tris (pH 8.0), 1.0 mM DTT, 10 mM MgCl2, NAD (200 μM, 0.65 microcurie/mL), and varying amounts of enzyme. The reaction was incubated for 10 min at 37° C. or at room temperature for 60 min. The reaction was stopped and protein precipitated by addition of ice-cold trichloroacetic acid (TCA; 10% or 20% aqueous w/v). After brief storage in ice or at 4° C. for 2 hrs, the reaction mixture is filtered under vacuum through a glass fiber filter (2.5 cm disc, or 96-well filter plate). After washing with TCA and ethanol, the filter is dried and counted for tritium CPM after addition of scintillation fluid.
Incorporation of biotin-NAD into histone coated on plate is measured. A 96-well protein-binding EIA plate is coated with histone and blocked with bovine serum albumin. The reaction mixture (50 μL) contained DNA, buffer, enzyme, (test compound), and 250 μM of NAD and 5 μL of biotin-NAD (Trevigen). After reaction at room temperature the wells are washed and treated with Extravidin (Sigma). After incubation and washing color is developed with the peroxidase substrate TMB (Sigma). The TMB reaction is quenched with 2M sulfuric acid and the absorbance at 450 nm is read.

T1 sequence (P09874 whole entry, the tested form may be a part): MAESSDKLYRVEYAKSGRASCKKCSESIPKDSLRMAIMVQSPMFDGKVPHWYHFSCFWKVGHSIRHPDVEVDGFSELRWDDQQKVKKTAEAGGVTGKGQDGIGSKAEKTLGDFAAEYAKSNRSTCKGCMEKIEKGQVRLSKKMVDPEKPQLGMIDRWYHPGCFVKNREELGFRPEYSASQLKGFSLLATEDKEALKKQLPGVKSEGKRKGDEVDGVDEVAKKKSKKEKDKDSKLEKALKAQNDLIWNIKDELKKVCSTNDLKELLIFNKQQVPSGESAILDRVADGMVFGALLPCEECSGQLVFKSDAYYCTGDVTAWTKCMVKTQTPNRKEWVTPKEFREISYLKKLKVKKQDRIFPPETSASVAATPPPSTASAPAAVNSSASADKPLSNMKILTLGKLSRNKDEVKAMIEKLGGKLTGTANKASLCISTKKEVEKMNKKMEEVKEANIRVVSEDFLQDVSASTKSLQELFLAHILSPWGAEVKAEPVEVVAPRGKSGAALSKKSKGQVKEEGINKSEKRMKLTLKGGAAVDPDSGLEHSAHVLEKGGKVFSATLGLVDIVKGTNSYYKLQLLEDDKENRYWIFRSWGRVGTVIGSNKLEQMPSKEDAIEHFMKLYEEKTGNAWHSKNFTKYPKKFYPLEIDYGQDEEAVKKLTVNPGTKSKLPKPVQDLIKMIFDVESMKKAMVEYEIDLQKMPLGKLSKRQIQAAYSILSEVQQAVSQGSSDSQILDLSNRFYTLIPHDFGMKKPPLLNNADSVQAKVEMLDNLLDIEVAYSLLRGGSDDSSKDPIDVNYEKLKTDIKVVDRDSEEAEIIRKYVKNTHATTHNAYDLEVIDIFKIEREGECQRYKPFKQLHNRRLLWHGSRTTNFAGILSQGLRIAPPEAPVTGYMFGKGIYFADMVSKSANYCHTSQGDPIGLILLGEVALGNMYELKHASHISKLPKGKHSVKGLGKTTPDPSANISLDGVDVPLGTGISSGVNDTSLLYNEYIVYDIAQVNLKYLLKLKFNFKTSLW

| Compound | IC50 [µM] |
| --- | --- |
| CCc1cc(-c2ccc(S(=O)(=O)NCCc3cccnc3)o2)c(C)[nH]c1=O [Example 48, 5-(5-Ethyl-2-methyl-6-oxo-1,6-dihydropyridin-3-yl)furan-2-sulfonic acid (2-pyridin-3-yl)ethylamide hydrochloride] | 0.36 |
| CCc1cc(-c2ccc(S(=O)(=O)NCCCN3CCCC3)o2)c(C)[nH]c1=O [Example 49, 5-(5-Ethyl-2-methyl-6-oxo-1,6-dihydropyridin-3-yl)furan-2-sulfonic Acid (3-pyrrolidin-1-yl)propylamide hydrochloride] | 0.18 |
| CCc1cc(-c2ccc(S(=O)(=O)NCCN3CCCCC3)o2)c(C)[nH]c1=O [Example 50, 5-(5-Ethyl-2-methyl-6-oxo-1,6-dihydropyridin-3-yl)furan-2-sulfonic acid (2-piperidin-1-yl)ethylamide hydrochloride] | 0.27 |
| CCc1cc(-c2ccc(S(=O)(=O)N3CCCN(C)CC3)o2)c(C)[nH]c1=O [Example 52, 3-Ethyl-6-methyl-5-[5-(4-methyl-1,4-diazepane-1-sulfonyl)furan-2-yl]-1H-pyridin-2-one hydrochloride] | 0.38 |
| CCc1cc(-c2ccc(S(=O)(=O)NCCN3CCCC3)o2)c(C)[nH]c1=O [Example 53, 5-(5-Ethyl-2-methyl-6-oxo-1,6-dihydropyridin-3-yl)furan-2-sulfonic acid (2-pyrrolidin-1-yl)ethylamide hydrochloride] | 0.16 |
| CCc1cc(-c2ccc(S(=O)(=O)NCc3cccnc3)o2)c(C)[nH]c1=O [Example 55, 5-(5-Ethyl-2-methyl-6-oxo-1,6-dihydropyridin-3-yl)furan-2-sulfonic acid (pyridin-3-yl)methylamide hydrochloride] | 0.22 |
| CCc1cc(-c2ccc(S(=O)(=O)N3CCN(CCCN4CCCC4)CC3)s2)c(C)[nH]c1=O [Example 62, 3-Ethyl-6-methyl-5-{5-[4-(3-pyrrolidin-1-yl)propylpiperazine-1-sulfonyl]thiophen-2-yl}-1H-pyridin-2-one dihydrochloride] | 0.6 |
| CCc1cc(-c2ccc(S(=O)(=O)N3CCN(CCN(C)C)CC3)s2)c(C)[nH]c1=O [Example 64, 5-{5-[4-(2-Dimethylaminoethyl)piperazine-1-sulfonyl]thiophen-2-yl}-3-ethyl-6-methyl-1H-pyridn-2-one dihydrochloride] | 1.5 |
| CCc1cc(-c2ccc(S(=O)(=O)NCCCN3CCN(C)CC3)s2)c(C)[nH]c1=O [Example 65, 5-(5-Ethyl-2-methyl-6-oxo-1,6-dihydropyridin-3-yl)thiophene-2-sulfonic acid 3-(4-methylpiperazin-1-yl)propylamide dihydrochloride] | 0.67 |
| CCc1cc(-c2ccc(S(=O)(=O)N3CCC(N4CCCC4)CC3)s2)c(C)[nH]c1=O [Example 66, 3-Ethyl-6-methyl-5-{5-[(4-pyrrolidin-1-yl)piperidine-1-sulfonyl]thiophen-2-yl}-1H-pyridin-2-one hydrochloride] | 0.67 |
| CCc1cc(-c2ccc(S(=O)(=O)NCCCN3CCCC3=O)s2)c(C)[nH]c1=O [Example 68, 5-[5-Ethyl-2-methyl-6-oxo-1,6-dihydropyridin-3-yl]thiophene-2-sulfonic acid [3-(2-oxopyrrolidin-1-yl)propyl]amide] | 1.9 |
| CCc1cc(-c2ccc(S(=O)(=O)NCc3cncc(C)n3)s2)c(C)[nH]c1=O [Example 73, 5-[5-Ethyl-2-methyl-6-oxo-1,6-dihydropyridin-3-yl]thiophene-2-sulfonic acid (6-methylpyrazin-2-yl)methylamide hydrochloride] | 0.42 |
| CCc1cc(-c2ccc(S(=O)(=O)NC3CCN(CC4CCCCC4)CC3)s2)c(C)[nH]c1=O [Example 75, 5-(5-Ethyl-2-methyl-6-oxo-1,6-dihydropyridin-3-yl)thiophene-2-sulfonic acid (1-cyclohexylmethylpiperidin-4-yl)amide hydrochloride] | 0.3 |
| CCc1cc(-c2ccc(S(=O)(=O)NC3CCN(Cc4ccc(Cl)cc4)CC3)s2)c(C)[nH]c1=O [Example 76, 5-[5-Ethyl-2-methyl-6-oxo-1,6-dihydropyridin-3-yl]-thiophene-2-sulfonic acid 1-(4-chlorobenzyl)piperidin-4-yl]amide hydrochloride] | 0.23 |

Further molecules by falling IC50, results first:

| IC50 [µM] | Compound |
| --- | --- |
| 5.7 | CCc1cc(-c2ccc(S(=O)(=O)N3CCN(CCN4CCCCC4)CC3)s2)c(C)[nH]c1=O [Example 57, 3-Ethyl-6-methyl-5-{5-[4-(2-piperidin-1-yl)ethylpiperizine-1-sulfonyl]thiophen-2-yl}-1H-pyridin-2-one dihydrochloride] |
| 2.3 | CCc1cc(-c2ccc(S(=O)(=O)N3CCN(Cc4ccncc4)CC3)s2)c(C)[nH]c1=O [Example 58, 3-Ethyl-6-methyl-5-[5-(4-pyridin-4-yl)methylpiperizine-1-sulfonyl]thiophen-2-yl}1H-pyridin-2-one dihydrochloride] |
| 1.7 | CCc1cc(-c2ccc(S(=O)(=O)N3CCN(CCc4ccccn4)CC3)s2)c(C)[nH]c1=O [Example 60, 3-Ethyl-6-methyl-5-{5-[4-(2-pyridin-2-yl)ethylpiperazine-1-sulfonyl]thiophen-2-yl}-1H-pyridin-2-one dihydrochloride] |
| 1.2 | CCc1cc(-c2ccc(S(=O)(=O)NCC(c3cccnc3)N3CCOCC3)s2)c(C)[nH]c1=O (stereo not drawn) [Example 72, 5-[5-Ethyl-2-methyl-6-oxo-1,6-dihydropyridin-3-yl]thiophene-2-sulfonic acid 2-(morpholin-4-yl)-2-(pyridin-3-yl)ethylamide dihydrochloride] |
| 0.89 | CCc1cc(-c2ccc(S(=O)(=O)NCCN3CCOCC3)o2)c(C)[nH]c1=O [Example 47, 5-(5-Ethyl-2-methyl-6-oxo-1,6-dihydropyridin-3-yl)furan-2-sulfonic acid (2-morpholin-4-yl)ethylamide hydrochloride] |
| 0.43 | CCc1cc(-c2ccc(S(=O)(=O)N3CCN(CCN4CCCC4)CC3)s2)c(C)[nH]c1=O [Example 61, 3-Ethyl-6-methyl-5-{5-[4-(2-pyrrolidin-1-yl)ethylpiperazine-1-sulfonyl]thiophen-2-yl}-1H-pyridin-2-one dihydrochloride] |
| 0.36 | CCc1cc(-c2ccc(S(=O)(=O)NC3CCN(CC4CC4)CC3)s2)c(C)[nH]c1=O [Example 74, 5-[5-Ethyl-2-methyl-6-oxo-1,6-dihydropyridin-3-yl]thiophene-2-sulfonic acid (1-cyclopropylmethylpiperidin-4-yl)amide hydrochloride] |
| 0.28 | CCc1cc(-c2ccc(S(=O)(=O)N(C)C3CCN(C)CC3)s2)c(C)[nH]c1=O [Example 77, 5-[5-Ethyl-2-methyl-6-oxo-1,6-dihydropyridin-3-yl]thiophene-2-sulfonic acid methyl-(1-methylpiperidin-4-yl]amide hydrochloride] |
| 0.26 | CCc1cc(-c2ccc(S(=O)(=O)NCCN3CCCCC3)s2)c(C)[nH]c1=O [Example 69, 5-[5-Ethyl-2-methyl-6-oxo-1,6-dihydropyridin-3-yl]thiophene-2-sulfonic acid (2-piperidin-1-yl)ethylamide hydrochloride] |
| 0.22 | CCc1cc(-c2ccc(S(=O)(=O)N3CCC(N4CCCCC4)CC3)o2)c(C)[nH]c1=O [Example 51, 3-Ethyl-6-methyl-5-[5-(4-piperidin-1-yl)piperidine-1-sulfonylfuran-2-yl]-1H-pyridin-2-one hydrochloride] |
